Experimental findings from ChEMBL document CHEMBL5291721, “A preclinical secondary pharmacology resource illuminates target-adverse drug reaction associations of marketed drugs” (Nat Commun, 2023) are described below.

For experiment [1], the target named is T1, Glucocorticoid receptor (Homo sapiens, UniProt P04150). Further: assay procedure not described here.
T1 sequence (P04150 whole entry): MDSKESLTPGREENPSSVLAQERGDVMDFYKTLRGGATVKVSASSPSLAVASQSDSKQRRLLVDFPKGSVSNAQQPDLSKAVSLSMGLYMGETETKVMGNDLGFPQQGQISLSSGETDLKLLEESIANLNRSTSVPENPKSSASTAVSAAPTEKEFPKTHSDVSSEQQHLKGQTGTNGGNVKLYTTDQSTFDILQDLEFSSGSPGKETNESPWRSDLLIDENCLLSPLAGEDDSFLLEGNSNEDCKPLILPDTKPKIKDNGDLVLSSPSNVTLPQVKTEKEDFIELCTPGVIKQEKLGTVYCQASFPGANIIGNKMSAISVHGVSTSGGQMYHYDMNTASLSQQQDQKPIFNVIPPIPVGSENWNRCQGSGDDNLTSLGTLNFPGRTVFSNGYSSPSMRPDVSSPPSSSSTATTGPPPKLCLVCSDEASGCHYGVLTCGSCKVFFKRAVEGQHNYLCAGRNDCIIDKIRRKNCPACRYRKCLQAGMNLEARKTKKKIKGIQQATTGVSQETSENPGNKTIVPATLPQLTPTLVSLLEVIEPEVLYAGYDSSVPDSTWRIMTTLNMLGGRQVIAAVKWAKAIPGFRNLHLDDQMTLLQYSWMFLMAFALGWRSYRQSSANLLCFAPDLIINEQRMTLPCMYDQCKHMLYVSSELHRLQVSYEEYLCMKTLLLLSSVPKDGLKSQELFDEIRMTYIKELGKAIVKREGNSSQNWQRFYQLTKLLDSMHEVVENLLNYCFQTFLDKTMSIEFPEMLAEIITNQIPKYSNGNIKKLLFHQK
Type of experiment: functional.

Experiment [2] deals with T2, Prostaglandin G/H synthase 1 (Rattus norvegicus, UniProt Q63921).
T2 sequence (Q63921 whole entry): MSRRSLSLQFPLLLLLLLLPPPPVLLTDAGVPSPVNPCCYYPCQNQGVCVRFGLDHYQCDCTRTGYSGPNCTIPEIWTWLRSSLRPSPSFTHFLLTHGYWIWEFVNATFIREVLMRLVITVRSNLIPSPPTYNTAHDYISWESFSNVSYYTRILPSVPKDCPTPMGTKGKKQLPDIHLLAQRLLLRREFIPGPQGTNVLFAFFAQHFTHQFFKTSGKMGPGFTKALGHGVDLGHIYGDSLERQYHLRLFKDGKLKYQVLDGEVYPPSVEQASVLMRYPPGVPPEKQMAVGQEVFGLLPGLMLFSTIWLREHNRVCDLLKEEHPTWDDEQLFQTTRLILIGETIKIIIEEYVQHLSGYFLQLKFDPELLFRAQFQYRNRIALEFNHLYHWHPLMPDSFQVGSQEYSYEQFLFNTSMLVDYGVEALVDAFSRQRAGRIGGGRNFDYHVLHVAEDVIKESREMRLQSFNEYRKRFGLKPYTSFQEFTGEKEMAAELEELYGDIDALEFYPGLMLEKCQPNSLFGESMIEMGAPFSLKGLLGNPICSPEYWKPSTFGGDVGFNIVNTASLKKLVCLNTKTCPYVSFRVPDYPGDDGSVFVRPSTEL
It is filed as functional.

Experiment [3] addresses T3, Alpha-2A adrenergic receptor (Homo sapiens, UniProt P08913).
T3 sequence (P08913 whole entry): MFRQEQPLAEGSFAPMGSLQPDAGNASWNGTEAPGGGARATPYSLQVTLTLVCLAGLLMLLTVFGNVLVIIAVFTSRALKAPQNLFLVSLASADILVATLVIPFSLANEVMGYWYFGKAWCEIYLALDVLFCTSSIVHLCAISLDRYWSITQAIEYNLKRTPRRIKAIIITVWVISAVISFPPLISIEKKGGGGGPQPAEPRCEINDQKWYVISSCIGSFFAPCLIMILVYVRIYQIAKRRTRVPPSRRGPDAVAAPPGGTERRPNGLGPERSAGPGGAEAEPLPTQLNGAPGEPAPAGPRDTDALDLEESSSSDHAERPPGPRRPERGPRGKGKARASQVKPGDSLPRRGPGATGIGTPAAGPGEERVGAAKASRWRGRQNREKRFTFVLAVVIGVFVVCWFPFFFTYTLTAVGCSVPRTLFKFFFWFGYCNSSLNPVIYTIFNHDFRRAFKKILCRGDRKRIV

Experiment [4] deals with Synaptic vesicular amine transporter (Rattus norvegicus, UniProt Q01827). Type of experiment: functional.
Synaptic vesicular amine transporter, sequence (Q01827 whole entry): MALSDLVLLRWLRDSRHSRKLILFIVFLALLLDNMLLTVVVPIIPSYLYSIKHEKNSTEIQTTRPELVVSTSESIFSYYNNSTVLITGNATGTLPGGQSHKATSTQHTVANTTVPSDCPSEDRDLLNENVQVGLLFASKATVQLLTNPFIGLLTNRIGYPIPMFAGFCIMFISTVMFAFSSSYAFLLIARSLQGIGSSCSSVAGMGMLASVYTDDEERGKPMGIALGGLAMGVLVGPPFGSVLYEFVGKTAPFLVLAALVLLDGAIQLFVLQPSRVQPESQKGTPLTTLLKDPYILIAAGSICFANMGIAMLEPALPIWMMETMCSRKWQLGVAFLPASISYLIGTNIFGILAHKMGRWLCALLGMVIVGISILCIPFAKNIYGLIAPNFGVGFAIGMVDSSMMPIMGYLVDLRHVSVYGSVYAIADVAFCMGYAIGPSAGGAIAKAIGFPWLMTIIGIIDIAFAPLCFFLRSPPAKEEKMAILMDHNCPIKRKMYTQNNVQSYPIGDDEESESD
The target in experiment [5] is T4, Androgen receptor (Homo sapiens, UniProt P10275). Further: assay procedure not described here.
T4 sequence (P10275 whole entry): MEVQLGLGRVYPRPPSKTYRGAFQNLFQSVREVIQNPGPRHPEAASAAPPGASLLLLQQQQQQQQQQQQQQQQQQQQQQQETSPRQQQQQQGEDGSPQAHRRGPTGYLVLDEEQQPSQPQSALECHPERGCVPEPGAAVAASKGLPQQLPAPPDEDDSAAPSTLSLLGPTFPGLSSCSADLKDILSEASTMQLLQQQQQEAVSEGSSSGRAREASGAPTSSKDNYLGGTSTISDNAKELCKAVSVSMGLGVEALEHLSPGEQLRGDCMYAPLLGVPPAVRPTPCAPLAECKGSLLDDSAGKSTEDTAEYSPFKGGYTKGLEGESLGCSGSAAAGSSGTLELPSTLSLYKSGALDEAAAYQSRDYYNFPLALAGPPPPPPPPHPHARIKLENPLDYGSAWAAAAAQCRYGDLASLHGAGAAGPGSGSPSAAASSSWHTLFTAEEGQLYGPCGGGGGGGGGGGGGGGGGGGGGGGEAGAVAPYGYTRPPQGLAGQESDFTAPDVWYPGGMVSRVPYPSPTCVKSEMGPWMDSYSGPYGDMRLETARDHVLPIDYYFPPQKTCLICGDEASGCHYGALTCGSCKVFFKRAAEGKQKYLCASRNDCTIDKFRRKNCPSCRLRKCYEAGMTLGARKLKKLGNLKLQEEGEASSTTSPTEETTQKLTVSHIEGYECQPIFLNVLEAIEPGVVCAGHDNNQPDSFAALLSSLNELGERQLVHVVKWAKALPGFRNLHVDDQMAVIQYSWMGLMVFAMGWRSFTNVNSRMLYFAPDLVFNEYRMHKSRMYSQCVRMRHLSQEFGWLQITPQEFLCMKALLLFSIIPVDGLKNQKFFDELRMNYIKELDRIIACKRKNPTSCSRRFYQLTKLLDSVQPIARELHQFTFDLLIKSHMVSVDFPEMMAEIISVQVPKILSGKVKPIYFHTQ

The target of experiment [6] is Sodium-dependent serotonin transporter (Homo sapiens, UniProt P31645). Further: assay procedure not described here.
Sodium-dependent serotonin transporter, sequence (P31645 whole entry): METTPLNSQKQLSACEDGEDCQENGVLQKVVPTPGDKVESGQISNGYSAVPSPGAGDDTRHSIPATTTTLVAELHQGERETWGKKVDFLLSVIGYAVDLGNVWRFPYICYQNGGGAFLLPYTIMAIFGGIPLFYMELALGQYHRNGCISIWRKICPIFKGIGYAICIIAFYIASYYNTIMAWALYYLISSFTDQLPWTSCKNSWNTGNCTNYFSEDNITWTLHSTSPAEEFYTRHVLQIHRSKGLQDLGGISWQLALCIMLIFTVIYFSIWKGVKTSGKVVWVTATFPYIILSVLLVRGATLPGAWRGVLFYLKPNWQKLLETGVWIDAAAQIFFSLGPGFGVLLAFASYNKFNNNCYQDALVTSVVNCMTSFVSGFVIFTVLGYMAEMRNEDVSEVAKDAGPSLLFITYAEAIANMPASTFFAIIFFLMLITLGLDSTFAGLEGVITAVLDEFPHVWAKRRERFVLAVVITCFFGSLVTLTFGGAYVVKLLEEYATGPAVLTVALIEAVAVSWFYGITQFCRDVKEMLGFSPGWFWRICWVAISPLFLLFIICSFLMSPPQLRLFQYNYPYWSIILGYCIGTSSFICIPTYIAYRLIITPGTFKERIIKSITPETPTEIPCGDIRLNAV

Consider `COc1cccc2c1C(=O)c1c(O)c3c(c(O)c1C2=O)C[C@@](O)(C(C)=O)C[C@@H]3O[C@H]1C[C@H](N)[C@H](O)[C@H](C)O1` [DAUNORUBICIN], for which the AC50 (commonly the midpoint of the concentration-response curve, whichever way the signal moves) in experiment [1] was over 10 µM.

In experiment [2], `COC(=O)N[C@@H](C)CNc1nccc(-c2cn(C(C)C)nc2-c2cc(Cl)cc(NS(C)(=O)=O)c2F)n1` [ENCORAFENIB] had an AC50 of over 30 µM.

On to `CC(C)CC(N(C)C)C1(c2ccc(Cl)cc2)CCC1` (stereo unspecified) [SIBUTRAMINE], for which the activity in experiment [3] was half-maximal at 2.14 µM (AC50).

`COc1ccc(C(CN(C)C)C2(O)CCCCC2)cc1` (stereo unspecified) [VENLAFAXINE]: the AC50 in experiment [4] is over 30 µM.

With COLISTIN, the half-maximal activity concentration (AC50) in experiment [5] and in experiment [6] was over 30 µM in each case.
